≈ marks a conversion by molar mass, not a printed value. Where “and” joins values, the source holds several entries; their conditions need not be identical. Identical values can stand only once.
Columns and labels:
[1] = Solubility of C60 and C70 fullerenes in methylene chloride/toluene mixtures; assay type: physicochemical
Description: The solubilities of C60 and C70 were established for the binary solvent system of toluene and methylene chloride using mixtures varying in composition from 100% to 0% of each component.

[2] = Reported or stated solubility in single organic solvents (benzene, liquid toluene, organic solvents); assay type: physicochemical
[3] = room temperature; cited from earlier work
[4] = stable to pressures up to; Yoo and Nellis, Science, 254, p. 1489, 1991; cited from earlier work
[5] = many organic solvents, several weeks; cited from earlier work
[6] = 0.0% CH2Cl2 / 100% toluene, duplicate samples 1 and 2
[7] = 25.0% CH2Cl2 / 75% toluene, duplicate samples 3 and 4
[8] = 50.0% CH2Cl2 / 50% toluene, duplicate samples 5 and 6
[9] = 75.0% CH2Cl2 / 25% toluene, duplicate samples 7 and 8
[10] = 100.0% CH2Cl2 / 0% toluene, duplicate samples 9 and 10

Row | Compound | Solubility [1, 6] | Solubility [1, 7] [mg/mL] | Solubility [1, 8] | Solubility [1, 9] | Solubility [1, 10] | Solubility in organic solvents (in words) [2] | Reported solubility in benzene [3] [mg/mL] | Reported stability to pressure [4] | Stability in organic solvents (in words) [5]
1 | c12c3c4c5c1c1c6c7c2c2c8c3c3c9c4c4c%10c5c5c1c1c6c6c%11c7c2c2c7c8c3c3c8c9c4c4c9c%10c5c5c1c1c6c6c%11c2c2c7c3c3c8c4c4c9c5c1c1c6c2c3c41 [C60, buckminsterfullerene] | 3.530 mg/mL and 3.470 mg/mL | 2.830 (≈ 3930 µM) | 1.783 mg/mL and 1.797 mg/mL | 0.895 mg/mL and 0.896 mg/mL | 0.556 mg/mL and 0.526 mg/mL | very low solubility | 5.0 | up to 2.5×10^6 psi | stable in many organic solvents for several weeks
2 | c12c3c4c5c1c1c6c7c2c2c8c3c3c9c4c4c%10c5c5c1c1c6c6c%11c%12c%13c%14c%15c%16c%17c%14c%14c%18c%13c%11c1c1c5c%10c5c(c%14c%10c%17c%11c%13c%16c%14c%16c%15c%12c%12c%16c(c2c7c%126)c2c8c3c(c%13c%142)c2c9c4c5c%10c%112)c%181 [C70] | 0.611 mg/mL and 0.597 mg/mL | 0.500 (≈ 595 µM) | 0.328 mg/mL and 0.330 mg/mL | 0.184 mg/mL (≈ 219 µM) | 0.106 mg/mL and 0.095 mg/mL | very low solubility |  |  | 

— patent US5281406A, “Recovery of C60 and C70 buckminsterfullerenes from carbon soot by supercritical fluid extraction and their separation by adsorption chromatography” (Analytical Bio-Chemistry Laboratories, Inc., priority 1992, dated 1994)
